Test results: US8815946B2, “Inhibition of proliferation and fibrotic response of activated corneal stromal cells” (University of Pittsburgh—of the Commonwealth System of …, priority 2008, dated 2014)

Experiments:
[1] = system: fibronectin; test: Immunocytochemical analysis of fibronectin expression, rabbit corneal stromal cells; format: cell-based; settings: rabbit corneal cells treated with TGF-β1
Procedure: (§1) FIGS. 6A-6B. Immunocytochemical analysis of fibronectin expression. Normal human stromal cells (FIG. 6A) or rabbit corneal stromal cells (FIG. 6B) in P2 growing in DMEM/F12 with 10% FBS were subcultured into 35 mm tissue culture dishes. After 24 hrs of incubation, the media were replaced with DMEM/F12 medium containing 1% FBS and TGF-β1 with or without (control) 10 mM EP and incubated for four days (media were changed every 24 hours). The cells were fixed and double stained for fibronectin (green) and phalloidin (red) using an indirect fluorescence technique as described herein.
(§2) For immunocytochemical analyses, the cells were cultured on glass cover slips or tissue culture dishes. Cells were rinsed with phosphate-buffered saline (PBS), fixed with paraformaldehyde-lysine-periodate and permeabilized with PIPES buffer containing 0.2% Triton X-100, as described previously (Guerriero et al., Invest. Opthalmol. Vis. Sci. 2007; 48: 627-635). Fixed and permeabilized cells were reacted with 10% heat-inactivated goat serum in PBS, pH 7.5, for 45 minutes to block the nonspecific binding of the secondary antibody, rinsed with PBS, and then treated with the primary and secondary antibodies as described previously (Guerriero et al. Invest. Opthalmol. Vis. Sci. 2007; 48: 627-635). Primary antibodies included monoclonal rat anti-α smooth muscle actin (SMA) and anti-fibronectin. […]

[2] = system: fibronectin; test: Immunocytochemical analysis of fibronectin expression, human stromal cells; format: cell-based; settings: human corneal cells treated with TGF-β1
Procedure: as §1, §2

[3] = system: extracellular matrix genes; test: Microarray analysis (Affymetrix U133 Plus 2.0) of corneal stromal cells; format: cell-based, human
Procedure: Total RNA was processed and analyzed using the appropriate Affymetrix products (Affymetrix Inc., Santa Clara, Calif.). Eukaryote Poly A RNA internal standards (GeneChip® Poly-A RNA Control Kit from Affymetrix Inc.) were added to the samples, and the mRNA component of the total RNA was reverse-transcribed in the presence of a T7-(dT)24 primer (GeneChip® One-Cycle cDNA Synthesis Kit from Affymetrix Inc.). The resulting cDNA was extracted (GeneChip® Sample Cleanup Module from Affymetrix Inc.) and transcribed in vitro in the presence of biotin-labeled ribonucleotides (Labeling Kit from Affymetrix Inc.). The biotinylated RNA was extracted and fragmented (GeneChip® Sample Cleanup Module from Affymetrix Inc.: 20 μg material fragmented for 35 minutes at 94° C.). Each sample was hybridized overnight to a U133 PLUS™ 2.0 GeneChip (GeneChip® Human Genome U133 Plus 2.0 Array from Affymetrix Inc.). The chips were then washed, developed and scanned in Agilent CHIPSCANNER™ (Affymetrix Inc., Santa Clara, Calif.). Raw data was processed and analyzed using Affymetrix GENECHIP™ Operating System (GCOS) v 1.0.
The U133 PLUS™ 2.0 GeneChips contain 54,675 panels, each targeting a specific transcript sequence. Approximately 20,600 gene products identified by Entrez Gene numbers are redundantly targeted by 46,000 panels: the remaining panels target products which are less well characterized. Affymetrix GCOS™1.0 software was used to assess the presence or absence of the target sequence of each panel. Expression levels were normalized so that the mean for each sample was equal to the global mean for all samples. Panels, which were absent for every sample in either experiment, were omitted from further consideration. This left 23284 panels encoding 12258 unique, characterized (Entrez Gene) genes.
In earlier work, the changes in the gene expression upon activation of keratocyte to myofibroblast phenotype induced by TGF-β1 was studied. In the present analysis, as a cross check the present, consistent TGFβ-evoked (>2-fold) increases were checked with the previous data. Transition from keratocytes to fibroblasts increased 520 panels, and decreased 700 panels. The 599 unique, characterized genes so altered were compared with a previously acquired database of 873 genes known to be altered by phenotypic transition either from keratocyte to fibroblast or from fibroblast to myofibroblast. The number of genes concordant between these sets was 170, 4.9-fold greater than random chance (p=1.65×10^−130, chi-squared test). Extracellular matrix components: 244 panels (143 unique genes) with the Gene Ontology Cellular Component code 5578 (extracellular matrix) were selected. Of these, 28 were TGFβ-1 modulated in the present experiment and 49 were Consistent 5-fold increases in myofibroblasts.
In Table 1 are ECM genes altered by phenotype change, which are also affected by ethyl pyruvate. Genes in bold were altered during phenotype shifts only in previous experiments, genes in italics were altered by phenotype shift only in the present experiment, and genes in normal font were altered by phenotype shifts in both present and prior experiments.

[4] = three consistent (2-fold) changes of four potential
[5] = two consistent (2-fold) changes of four potential

SMILES: CCOC(=O)C(C)=O [ethyl pyruvate]
- fibronectin deposition in the matrix (immunocytochemical) [1]: concentration dependent downregulation
- fibronectin deposition in the matrix (immunocytochemical) [2]: concentration dependent downregulation
- latent transforming growth factor beta binding protein 1 expression change ([3]; four consistent (2-fold) changes of four potential): (−4.1)
- consistent increase of RGC32, HMOX1, GDF15 and TRIB3 expression ([3]; myofibroblasts, only four characterized genes): 5 fold
- Tissue factor pathway inhibitor 2 expression change [3, 4]: (−4.8)
- collagen, type III, alpha 1 expression change [3, 4]: alpha 1 (−4.9)
- collagen, type X, alpha1 expression change [3, 4]: alpha1 (−8.1)
- laminin, beta 1 expression change [3, 4]: (−3.8)
- matrix metallopeptidase 10 (stromelysin 2) expression change [3, 4]: (stromelysin 2) (3.8)
- periostin, osteoblast specific factor expression change [3, 4]: specific factor (−9.7)
- secreted phosphoprotein 1 (osteopontin) expression change [3, 4]: (osteopontin) (2.7)
- Collagen, type VIII, alpha 1 expression change [3, 5]: alpha 1 (−4.0)
- EGF-containing fibulin-like extracellular matrix protein1 expression change [3, 5]: (−2.6)
- SPARC-like 1 expression change [3, 5]: SPARC-like 1 (−3.3)
- chondroitin sulfate proteoglycan 2 (versican) expression change [3, 5]: (versican) (−5.9)
- collagen triple helix repeat containing 1 expression change [3, 5]: containing 1 (−4.3)
- collagen, type I, alpha 2 expression change [3, 5]: alpha 2 (−2.7)
- collagen, type V, alpha 1 expression change [3, 5]: alpha 1 (−6.2)
- collagen, type VIII, alpha 2 expression change [3, 5]: alpha 2 (−3.8)
- collagen, type XII, alpha1 expression change [3, 5]: alpha1 (−2.8)
- fibronectin 1 expression change [3, 5]: fibronectin 1 (−2.3)
- heparan sulfate proteoglycan 2 (perlecan) expression change [3, 5]: (perlecan) (−3.0)
- laminin, alpha 4 expression change [3, 5]: (−2.4)
- lysyl oxidase expression change [3, 5]: lysyl oxidase (−4.0)
- matrix metallopeptidase 1 (interstitial collagenase) expression change [3, 5]: collagenase) (5.9)
- secreted protein, acidic, cysteine-rich (osteonectin) expression change [3, 5]: (osteonectin) (−8.4)
- tenascin C (hexabrachion) expression change [3, 5]: (hexabrachion) (−7.4)
- collagen, type I, alpha 1 expression change ([3]; two consistent (2-fold) ethyl pyruvate changes of four potential (2 phenotypes, 2 experiments)): alpha 1 (−2.9)
